Source: patent US8048880B2, “Treatment of cardiovascular disease and dyslipidemia using secretory phospholipase A2 (SPLA2) inhibitors and SPLA2 inhibitor combination therapies” (Anthera Pharmaceuticals, Inc., priority 2007, dated 2011)

How the values were obtained:
Format in all cases: in vivo
ApoE−/− mice [1] = experiment: Plasma total cholesterol and HDL levels in ApoE−/− mice, A-002 and/or statin (Example 3); details: 0.02 g/kg pravastatin in diet alone, 12 weeks
Protocol: (§1) Body weight, plasma total cholesterol, and plasma HDL levels were measured for six groups of twelve ApoE^−/− mice. The mice were then placed on a high fat diet for twelve weeks to allow for formation of significant fatty atherosclerotic plaques. The high fat diet was a modified version of the Western diet (TD.88137, Harlan Teklad, Madison, Wis.) consisting of casein (195 g/kg), DL-methionine (3 g/kg), sucrose (341.44 g/kg), corn starch (150 g/kg), anhydrous milkfat (210 g/kg), cholesterol (1.5 g/kg), cellulose (50 g/kg), mineral mix AlN-76 (Teklad; 35 g/kg), calcium carbonate (4 g/kg), vitamin mix (Teklad #40060; 10 g/kg), ethyoxyquin (antioxidant, 0.04 g/kg), and either 0.0156 g/kg (“low dose”) A-002 (Group A), 1.56 g/kg (“high dose”) A-002 (Group B), 0.02 g/kg pravastatin (Group C), low dose A-002 plus 0.02 g/kg pravastatin (Group D), high dose A-002 plus 0.02 g/kg pravastatin (Group E), or vehicle only (Group F). Mice were administered diets A-F in a blinded manner, and food was provided ad libitum. The diet was initially prepared based on the assumption that each mouse weighed 22.5 g and ate 4.5 g/day. Based on body weight and food consumption, the diet was modified over the 12 week course of treatment to adjust for a body weight of 26 g and a food intake of 2.5 g/day. The dosages of A-002 were selected to cover a range of 100-fold based on pharmacokinetics in ApoE^−/− mice as well as toxicology and previously observed efficacy in this model.
Plasma total cholesterol and HDL levels were measured. Mean levels of total cholesterol were decreased in mice administered A-002 alone or in combination with statin (Table 3, FIG. 6). […] Mean levels of HDL were increased in mice administered A-002 at either dosage (Table 4). This increase was greater in mice administered high dose A-002 plus statin than in mice administered high dose A-002 or statin alone (Table 4 compare Group E vs. Groups B and C; FIG. 7).

[2] = system: human subjects with CVD, specifically stable coronary artery disease; experiment: Serum lipid levels in humans, A-002 twice a day for eight weeks (Example 4)
Protocol: 204 human subjects from the United States with CVD, specifically stable coronary artery disease, were randomized to receive placebo or A-002 via oral administration twice a day over an eight week administration period at dosages of 50 mg, 100 mg, 250 mg, or 500 mg. Levels of various lipids and inflammatory markers were measured at the outset of the trial and at the end of weeks four and/or eight. For data sets with a normal distribution, mean levels of lipids or inflammatory markers were analyzed. For data sets with non-normal distribution, median levels were analyzed. […] In addition, administration of A-002 decreased median levels of CRP (Table 11).
The combined effect of A-002 and statin administration on LDL levels was tested in a population of 332 subjects. This population consisted of the original 204 United States subjects, plus an additional 128 subjects from the Ukraine with stable CAD that received placebo or A-002 based according to the same protocol as the United States subjects. […] Similarly, A-002 decreased LDL levels in subjects receiving a variety of non-statin compounds used in the treatment of CVD, including ezetimibe, AEGR-733/ezetimibe, colesevelam hydrochloride (WelChol®), MK-0524A (Cordaptive®), lisinopril/MC-1 antibody (MC-4232), and Angiotensin Receptor Blocker (ARB)/MC-1 (MC-4262).

ApoE−/− mice [3] = experiment: En face lesion size in ApoE−/− mice on high fat diet, A-002 and/or statin (Example 3); details: 0.02 g/kg pravastatin in diet alone, 12 weeks
Protocol: as §1
After twelve weeks, mice were sacrificed and plasma, heart tissue, and aortic tissue were collected. En face lesion size was determined via digital imaging analysis. Plaque content (as measured as en face lesion) was reduced in mice administered A-002 alone, statin alone, or A-002 in combination with statin. The reduction in plaque content in mice administered A-002 plus statin was substantially greater than the reduction in mice administered either compound alone (Table 2, compare Group D vs. Groups A and C; Group E vs. Groups B and C). Further, the reduction in plaque content in mice administered A-002 plus statin was substantially greater than the sum of the reduction in plaque content in mice administered A-002 alone and mice administered statin alone.

[4] = summary Table 20, A-002 alone, statin alone or A-002 plus statin

CC[C@H](C)C(=O)O[C@H]1C[C@H](O)C=C2C=C[C@H](C)[C@H](CC[C@@H](O)C[C@@H](O)CC(=O)O)[C@H]21 [Statin, pravastatin, reference compound]
Mean HDL concentration (ApoE−/− mice [1]): 14.500 mg/dL | Mean total cholesterol concentration (ApoE−/− mice [1]): 1405.417 mg/dL | increase of mean serum small LDL particle levels ([2]; at eight weeks, United States population, statin alone (Table 14)): 13.26% | decrease of mean serum LDL levels ([2]; at eight weeks, United States subjects with baseline LDL of 72 mg/dl or greater, text restating Tables 15 and 19): 4.40% | decrease of mean serum LDL levels ([2]; at week eight, combined United States and Ukraine populations, Tables 16 and 18): 2.15% | decrease of mean serum LDL levels ([2]; at week four, combined United States and Ukraine populations, Tables 16 and 18): 3.36% | Observed change following administration: Mean serum [LDL] at week 4 [2, 4]: −3.36% | Observed change following administration: Mean serum [LDL] at week 8 [2, 4]: −2.15% | Observed change following administration: Mean serum [LDL] in ≧72 mg/dl subpopulation at week 8 [2, 4]: −4.40% | Observed change following administration: Mean serum [small LDL particle] at week 8 [2, 4]: +13.26% | Change in mean % en face lesion vs. control (ApoE−/− mice [3]): −0.813% | Mean % en face lesion (ApoE−/− mice [3]): 4.814%

O=C1[C@H](CC[C@H](O)c2ccc(F)cc2)[C@@H](c2ccc(O)cc2)N1c1ccc(F)cc1 [ezetimibe, reference compound]
Observed change following administration: Mean serum [LDL] at week 8 ([2]; summary Table 22, A-002 alone, ezetimibe alone or A-002 plus ezetimibe): −1.7%
